Earlier results as cited in patent EP3645498B1, “PROCESS FOR RECOVERING ACETIC ACID FROM AN AQUEOUS STREAM COMPRISING THE SAME” (Nouryon Chemicals International B.V., priority 2017, dated 2019).
Like-named read-outs stand apart in the source and are kept apart here.

| SMILES | Solubility in water | Solubility in water (result in words) |
| --- | --- | --- |
| CCCCCCCCN(CCCCCCCC)CCCCCCCC [TOA, trioctylamine] | < 5ppm^[2] |  |
| CCCCCCCCCCCCc1ccccc1 [Phenyldodecane, phenyldodecane] |  | Insoluble^[11] |
| CCCCCCCCP(=O)(CCCCCCCC)CCCCCCCC [TOPO, tri-octylphosphine oxide] |  | Insoluble^[5] |

The next lines start with the values.

| Solubility in water | Solubility in water (result in words) | SMILES |
| --- | --- | --- |
| 0.0022 mg/L^[8] |  | CCCCCCCCCCCCCC [n-Tetradecane, n-tetradecane] |
|  | Insoluble^[10] | CCCCCCCCCCCO [1 -Undecanol, 1-undecanol] |
